In patent publication US12082582B2, “Synergistic preservative compositions, process for preparing the same and method of use thereof” (ISP INVESTMENTS LLC, priority 2018, dated 2024):

How the values were obtained:
Type in all cases: cell-based
A. niger = assay: Synergy study of PC and (CHA + IPMP), MIC by broth dilution; settings: compound acting alone
Description: (§1) The synergistic activity of PC and (CHA+IPMP) compounds were performed against selected microbial strains.
(§2) Tryptic Soy Broth (TSB) media was used for bacterial evaluations and Yeast Malt Broth (YMB) for fungal evaluations. The IPMP solution is prepared by combining 0.25% IPMP with 20% DMSO and water (q.s. 100%). The CHA solution was prepared by combining 0.5% CHA with 20% DMSO and water (q.s. 100%). The compounds are then added to the media (50 μL) and serially diluted. The same amount of PC was added to all wells (e.g. 50 μL of 6.25% solution). 100 μl of a suspension of the testing bacteria or fungi are added to a final concentration of approximately 10^6 CFU/ml in double concentrated media. The inoculated media is then incubated at 32° C. for 2-5 days for bacteria or at 28° C. for 3-7 days for fungi.
(§3) The lowest concentration of each compound or mixture of compounds to inhibit visible growth is taken as the minimum inhibitory concentration (MIC). The MIC is taken as end points of activity. End points for the mixture of compound A (CHA) and compound B (IPMP) with and without PC are then compared with the end points for the pure active ingredient alone.
(§4) Synergism was determined by a commonly used and accepted method described by Kull A. C; Eisman, P. C.; Sylwestrowicz, H. D. and Mayer, R. L. 1961. Applied Microbiology, 9:538-541 using the ratio determine by: Qa/QA+Qb/QB=Synergy Wherein: • QA is the concentration of compound A in PPM, acting alone, which produced an end point. • Qa is the concentration of compound A in PPM, in the mixture, which produced an end point. • QB is the concentration of compound B in PPM, acting alone, which produced an end point. • Qb is the concentration of compound B in PPM, in the mixture, which produced an end point When the sum of Qa/QA+Qb/QB is greater than one, antagonism is indicated. When the sum is equal to one, additive is indicated.
(§5) The results comprise following parameters: 1. Test organism (bacteria or fungi), 2. The end-point activity in % measured by MIC for the compound A alone (QA), for compound A in the mixture (Qa), for compound B alone (QB), for compound B in the mixture (Qb), 3. The ratio of CHA and IPMP (compound A and B) in that particular combination, 4. The sum of Qa+Qb (total ppm that inhibited growth) and 5. and the synergy index (SI) based on the formula SI=Qa/QA+Qb/QB

E. coli = assay: as above; settings: compound acting alone
Description: as §1, §2, §3, §4, §5

C. albicans = assay: as above; settings: compound acting alone
Description: as §1, §2, §3, §4, §5

B. cepacia = assay: as above; settings: compound acting alone
Description: as §1, §2, §3, §4, §5

[1] = Antimicrobial and antifungal characteristics (MIC) of propylene carbonate alone
From the text: In one embodiment of the application, the synergistic composition of propylene carbonate with one or more organic compounds or preservative compounds can provide broad spectrum antimicrobial properties. […] The presence of propylene carbonate in the composition can maximize the partitioning of the mixture of organic/preservative compounds into the water phase when added to an end-user composition comprising a mixture of oil and a water phase. Further, the propylene carbonate-based compositions or blends acts as a delivery agent for other preservative/organic actives that have low polarity with high dielectric constant making it a suitable blend to dissolve hydrophobic non-polar actives. The high dielectric constant of the composition enables it to partition the active ingredients towards the oil/water interface which is critical for maximum efficacy and reduces use levels of preservatives or boosters.

CCCCCCCC(=O)NO [CHA, caprylhydroxamic acid]
MIC (A. niger; Aspergillus niger, read-out: MIC, CHA alone (QA)): 312 µg/mL
MIC (E. coli; Escherichia coli, read-out: MIC, CHA alone (QA)): 625 µg/mL
MIC (C. albicans; Candida albicans, read-out: MIC, CHA alone (QA)): 312 µg/mL
MIC (B. cepacia; Burkholderia cepacia, read-out: MIC, CHA alone (QA)): 312 µg/mL

Cc1cc(O)ccc1C(C)C [IPMP, isopropyl methylphenol]
MIC, IPMP alone (QB) (A. niger): 156.3 ppm
MIC, IPMP alone (QB) (E. coli): 625 ppm
MIC, IPMP alone (QB) (C. albicans): 312.5 ppm
MIC, IPMP alone (QB) (B. cepacia): 312.5 ppm

CC1COC(=O)O1 (stereo not drawn) [Propylene carbonate]
Antimicrobial and antifungal characteristics (MIC) [1]: no significant antimicrobial and antifungal characteristics
